± gives the standard deviation of the averaged measurements.
Tests used:
HS-PSS [1] = assay: drug sensitivity score (DSS, CellTiter-Glo viability, 72 h) (DSS (dimensionless)); higher = more sensitive; extreme values may be limits of the assay
Method in brief: (§1)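 Viability of MPNST cell lines and primary human Schwann cells was read as CellTiter-Glo ATP luminescence after 72 h at 37 °C, 5% CO2, in 384-well plates seeded with 750–1000 cells per well. Each compound had been preprinted at five concentrations in 10-fold steps. Signals were scaled between vehicle and positive-control wells, duplicates averaged where present, and fitted with four-parameter logistic curves. Drug sensitivity score and relative IC50 (censored at the top concentration) come from those fits, and percent inhibition is taken at the top concentration.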

HS-Sch-2 [2] = assay: as above
Method in brief: as §1

[3] = test system: HSC1 (primary human Schwann cells); assay: as above
Method in brief: as §1

[4] = test system: HSC2 (primary human Schwann cells); assay: as above
Method in brief: as §1

S1507-2 [5] = assay: as above
Method in brief: as §1

S462 [6] = assay: as above
Method in brief: as §1

ST8814 [7] = assay: as above
Method in brief: as §1

STS26T [8] = assay: as above
Method in brief: as §1

YST-1 [9] = assay: as above
Method in brief: as §1

HS-PSS [10] = assay: drug sensitivity score (DSS, CellTox-Green cytotoxicity, 72 h) (DSS (dimensionless)); higher = more cytotoxic; extreme values may be limits of the assay
Method in brief: (§2)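 MPNST cell lines and primary human Schwann cells were grown for 72 h at 37 °C in 384-well plates containing five 10-fold compound dilutions. CellTox-Green, added before seeding at a final 1:1000 dilution, gave fluorescence from DNA released by disrupted cells, and signals were scaled to vehicle and positive-control wells. Curves were fitted with a four-parameter logistic model. Drug sensitivity score and relative IC50 come from these fits, with IC50 censored at the top concentration.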

[11] = test system: HSC1 (primary human Schwann cells); assay: as above
Method in brief: as §2

[12] = test system: HSC2 (primary human Schwann cells); assay: as above
Method in brief: as §2

S1507-2 [13] = assay: as above
Method in brief: as §2

ST8814 [14] = assay: as above
Method in brief: as §2

STS26T [15] = assay: as above
Method in brief: as §2

HS-PSS [16] = assay: % inhibition of CellTiter-Glo viability at highest tested concentration (72 h), relative to DMSO and benzethonium chloride controls; higher = more inhibition
Method in brief: as §1

HS-Sch-2 [17] = assay: as above
Method in brief: as §1

[18] = test system: HSC1 (primary human Schwann cells); assay: as above
Method in brief: as §1

[19] = test system: HSC2 (primary human Schwann cells); assay: as above
Method in brief: as §1

S1507-2 [20] = assay: as above
Method in brief: as §1

S462 [21] = assay: as above
Method in brief: as §1

ST8814 [22] = assay: as above
Method in brief: as §1

STS26T [23] = assay: as above
Method in brief: as §1

YST-1 [24] = assay: as above
Method in brief: as §1

Nc1ccn([C@@H]2O[C@H](CO)[C@@H](O)C2(F)F)c(=O)n1 [Gemcitabine] (max concentration tested 1000 nM)
drug sensitivity score (HS-PSS [1]): 14.7
drug sensitivity score (HS-Sch-2 [2]): 25.2
drug sensitivity score [3]: 26.5
drug sensitivity score [4]: 27.7
drug sensitivity score (S1507-2 [5]): 31.7 ± 4.1
drug sensitivity score (S462 [6]): 40.2 ± 1
drug sensitivity score (ST8814 [7]): 27.7
drug sensitivity score (STS26T [8]): 28.3
drug sensitivity score (YST-1 [9]): 19.7
drug sensitivity score (HS-PSS [10]): 7.61
drug sensitivity score [11]: 23.3
drug sensitivity score [12]: 18.5
drug sensitivity score (S1507-2 [13]): 14.3 ± 2
drug sensitivity score (ST8814 [14]): 21
drug sensitivity score (STS26T [15]): 19.3
% inhibition (HS-PSS [16]): 70.2%
% inhibition (HS-Sch-2 [17]): 75%
% inhibition [18]: 85%
% inhibition [19]: 84.5%
% inhibition (S1507-2 [20]): 86.1 ± 3.8%
% inhibition (S462 [21]): 99.9 ± 2.2%
% inhibition (ST8814 [22]): 96.5%
% inhibition (STS26T [23]): 83.8%
% inhibition (YST-1 [24]): 76.7%

CCCS(=O)(=O)Nc1ccc(F)c(C(=O)c2c[nH]c3ncc(-c4ccc(Cl)cc4)cc23)c1F [Vemurafenib] (max concentration tested 10000 nM)
drug sensitivity score (HS-PSS [1]): 1.03
drug sensitivity score (HS-Sch-2 [2]): 1.24
drug sensitivity score [3]: 6.16
drug sensitivity score [4]: 6.66
drug sensitivity score (S1507-2 [5]): 0.879 ± 1.2
drug sensitivity score (S462 [6]): 0
drug sensitivity score (ST8814 [7]): 0
drug sensitivity score (STS26T [8]): 3.31
drug sensitivity score (YST-1 [9]): 0
drug sensitivity score (HS-PSS [10]): 0
drug sensitivity score [11]: 0
drug sensitivity score [12]: 0
drug sensitivity score (S1507-2 [13]): 0
drug sensitivity score (ST8814 [14]): 0.417
drug sensitivity score (STS26T [15]): 2.82
% inhibition (HS-PSS [16]): 29.3%
% inhibition (HS-Sch-2 [17]): 34.4%
% inhibition [18]: 70.2%
% inhibition [19]: 70.7%
% inhibition (S1507-2 [20]): 7.31 ± 3.8%
% inhibition (S462 [21]): 12.6 ± 17%
% inhibition (ST8814 [22]): 1.91%
% inhibition (STS26T [23]): 41.5%
% inhibition (YST-1 [24]): 1.68%

CCCCCOC(=O)Nc1nc(=O)n([C@@H]2O[C@H](C)[C@@H](O)[C@H]2O)cc1F [Capecitabine] (max concentration tested 10000 nM)
drug sensitivity score (HS-PSS [1]): 0
drug sensitivity score (HS-Sch-2 [2]): 0
drug sensitivity score [3]: 0
drug sensitivity score [4]: 0
drug sensitivity score (S1507-2 [5]): 0
drug sensitivity score (S462 [6]): 0
drug sensitivity score (ST8814 [7]): 0
drug sensitivity score (STS26T [8]): 0.0023
drug sensitivity score (YST-1 [9]): 0
drug sensitivity score (HS-PSS [10]): 0
drug sensitivity score [11]: 0
drug sensitivity score [12]: 0
drug sensitivity score (S1507-2 [13]): 0
drug sensitivity score (ST8814 [14]): 0
drug sensitivity score (STS26T [15]): 0
% inhibition (HS-PSS [16]): -4.86%
% inhibition (HS-Sch-2 [17]): -4.92%
% inhibition [18]: 1.09%
% inhibition [19]: -3.4%
% inhibition (S1507-2 [20]): 5.66 ± 1.9%
% inhibition (S462 [21]): -4.78 ± 2.1%
% inhibition (ST8814 [22]): -8.14%
% inhibition (STS26T [23]): 12%
% inhibition (YST-1 [24]): -6.84%

CCC1=C[C@@H]2CN(C1)Cc1c([nH]c3ccccc13)[C@@](C(=O)OC)(c1cc3c(cc1OC)N(C)[C@H]1[C@@](O)(C(=O)OC)[C@H](OC(C)=O)[C@]4(CC)C=CCN5CC[C@]31[C@@H]54)C2 [Vinorelbine] (max concentration tested 10000 nM)
drug sensitivity score (HS-PSS [1]): 24.6
drug sensitivity score (HS-Sch-2 [2]): 40.6
drug sensitivity score [3]: 16.7
drug sensitivity score [4]: 20.8
drug sensitivity score (S1507-2 [5]): 19.1 ± 0.81
drug sensitivity score (S462 [6]): 30.2 ± 0.41
drug sensitivity score (ST8814 [7]): 20.6
drug sensitivity score (STS26T [8]): 31.9
drug sensitivity score (YST-1 [9]): 40.2
drug sensitivity score (HS-PSS [10]): 2.69
drug sensitivity score [11]: 12.5
drug sensitivity score [12]: 13.5
drug sensitivity score (S1507-2 [13]): 19.2 ± 3.6
drug sensitivity score (ST8814 [14]): 19.7
drug sensitivity score (STS26T [15]): 34.4
% inhibition (HS-PSS [16]): 80.5%
% inhibition (HS-Sch-2 [17]): 98.5%
% inhibition [18]: 78.9%
% inhibition [19]: 88.8%
% inhibition (S1507-2 [20]): 80.4 ± 4.8%
% inhibition (S462 [21]): 99.19 ± 0.43%
% inhibition (ST8814 [22]): 94.7%
% inhibition (STS26T [23]): 94.5%
% inhibition (YST-1 [24]): 94.3%

Nc1ncnc2c1c(COc1cccc(Cl)c1)nn2C1CCOCC1 (max concentration tested 10000 nM)
drug sensitivity score (HS-PSS [1]): 0
drug sensitivity score (HS-Sch-2 [2]): 0.64
drug sensitivity score [3]: 0.203
drug sensitivity score [4]: 0
drug sensitivity score (S1507-2 [5]): 0.0549 ± 0.078
drug sensitivity score (S462 [6]): 0
drug sensitivity score (ST8814 [7]): 0
drug sensitivity score (STS26T [8]): 0.587
drug sensitivity score (YST-1 [9]): 0
drug sensitivity score (HS-PSS [10]): 0
drug sensitivity score [11]: 0
drug sensitivity score [12]: 0
drug sensitivity score (S1507-2 [13]): 0.494 ± 0.64
drug sensitivity score (ST8814 [14]): 0
drug sensitivity score (STS26T [15]): 0
% inhibition (HS-PSS [16]): 7.3%
% inhibition (HS-Sch-2 [17]): 12.5%
% inhibition [18]: 11.5%
% inhibition [19]: -5.42%
% inhibition (S1507-2 [20]): 9.42 ± 7.2%
% inhibition (S462 [21]): -3.41 ± 5.9%
% inhibition (ST8814 [22]): 5.84%
% inhibition (STS26T [23]): 18.3%
% inhibition (YST-1 [24]): 9.51%

CC(C)c1cc(-c2n[nH]c(=O)n2-c2ccc3c(ccn3C)c2)c(O)cc1O [Ganetespib] (max concentration tested 1000 nM)
drug sensitivity score (HS-PSS [1]): 13.9
drug sensitivity score (HS-Sch-2 [2]): 19.6
drug sensitivity score [3]: 21.5
drug sensitivity score [4]: 20.6
drug sensitivity score (S1507-2 [5]): 15.5
drug sensitivity score (S462 [6]): 19.2
drug sensitivity score (ST8814 [7]): 20.7
drug sensitivity score (STS26T [8]): 17.6
drug sensitivity score (YST-1 [9]): 13.7
drug sensitivity score (HS-PSS [10]): 4.34
drug sensitivity score [11]: 21.1
drug sensitivity score [12]: 20.9
drug sensitivity score (S1507-2 [13]): 12.7
drug sensitivity score (ST8814 [14]): 17.2
drug sensitivity score (STS26T [15]): 10.9
% inhibition (HS-PSS [16]): 84.2%
% inhibition (HS-Sch-2 [17]): 101%
% inhibition [18]: 99.1%
% inhibition [19]: 98.5%
% inhibition (S1507-2 [20]): 94.5%
% inhibition (S462 [21]): 99.6%
% inhibition (ST8814 [22]): 101%
% inhibition (STS26T [23]): 94.1%
% inhibition (YST-1 [24]): 79.1%

CC(=O)Nc1ccc(C(=O)Nc2ccccc2N)cc1 [Tacedinaline] (max concentration tested 1000 nM)
drug sensitivity score (HS-PSS [1]): 0
drug sensitivity score (HS-Sch-2 [2]): 0
drug sensitivity score [3]: 0
drug sensitivity score [4]: 0
drug sensitivity score (S1507-2 [5]): 0
drug sensitivity score (S462 [6]): 0
drug sensitivity score (ST8814 [7]): 0
drug sensitivity score (STS26T [8]): 0
drug sensitivity score (YST-1 [9]): 0
drug sensitivity score (HS-PSS [10]): 0
drug sensitivity score [11]: 0
drug sensitivity score [12]: 0
drug sensitivity score (S1507-2 [13]): 0
drug sensitivity score (ST8814 [14]): 0
drug sensitivity score (STS26T [15]): 0
% inhibition (HS-PSS [16]): 0.39%
% inhibition (HS-Sch-2 [17]): -2.17%
% inhibition [18]: 6.93%
% inhibition [19]: 0.407%
% inhibition (S1507-2 [20]): 2.24 ± 3.5%
% inhibition (S462 [21]): 6.18 ± 0.36%
% inhibition (ST8814 [22]): -2.81%
% inhibition (STS26T [23]): 4.09%
% inhibition (YST-1 [24]): 9.24%
